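The compound was tested at five concentrations on cells cultured in 96-well plates, with a 48-hour exposure period. GI50 marks 50% less growth.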 The source made the active and inactive calls. No stated cut-off is given here; in the data, active = GI50 up to about 1.1 µM and inactive = higher.
Experiments:
Assay in all cases: NCI-60 cell line screen, 48 h
MDA-N = system: MDA-N
CCRF-CEM = system: CCRF-CEM
786-0 = system: 786-0
NCI-H522 = system: NCI-H522
EKVX = system: EKVX
IGROV-1 = system: IGROV-1
SF-295 = system: SF-295
ACHN = system: ACHN
K562 = system: K562
KM12 = system: KM12
SK-MEL-2 = system: SK-MEL-2
SR = system: SR
OVCAR-8 = system: OVCAR-8
SN12C = system: SN12C
UACC-257 = system: UACC-257
OVCAR-4 = system: OVCAR-4
PC-3 = system: PC-3
TK-10 = system: TK-10
NCI-H226 = system: NCI-H226
SK-MEL-28 = system: SK-MEL-28
HCT-15 = system: HCT-15
A498 = system: A498
UO-31 = system: UO-31
SF-268 = system: SF-268
NCI-H23 = system: NCI-H23
HOP-62 = system: HOP-62
DU-145 = system: DU-145
BT-549 = system: BT-549
HCT-116 = system: HCT-116
A549 = system: A549
RPMI-8226 = system: RPMI-8226
SNB-19 = system: SNB-19
M14 = system: M14
T47D = system: T47D
NCI/ADR-RES = system: NCI/ADR-RES
CAKI-1 = system: CAKI-1
HOP-92 = system: HOP-92
SF-539 = system: SF-539
LOX IMVI = system: LOX IMVI
RXF 393 = system: RXF 393
NCI-H460 = system: NCI-H460
U-251 = system: U-251
OVCAR-3 = system: OVCAR-3
OVCAR-5 = system: OVCAR-5
COLO 205 = system: COLO 205
UACC-62 = system: UACC-62
SK-OV-3 = system: SK-OV-3
SK-MEL-5 = system: SK-MEL-5
MDA-MB-435 = system: MDA-MB-435
MOLT-4 = system: MOLT-4
SW-620 = system: SW-620
MDA-MB-231 = system: MDA-MB-231
Hs-578T = system: Hs-578T
MCF7 = system: MCF7
Malme-3M = system: Malme-3M
HCC 2998 = system: HCC 2998
SNB-75 = system: SNB-75
HT-29 = system: HT-29

O=c1[nH]c(=O)n(C2CC(O)C(CO)O2)c2nc3cc4ccccc4cc3nc12 (stereo not drawn)
GI50 (MDA-N): > 100 µM (inactive)
GI50 (CCRF-CEM): 36.6 µM (inactive)
GI50 (786-0): > 100 µM (inactive)
GI50 (NCI-H522): > 100 µM (inactive)
GI50 (EKVX): > 100 µM (inactive)
GI50 (IGROV-1): 98.4 µM (inactive)
GI50 (SF-295): 75.2 µM (inactive)
GI50 (ACHN): > 100 µM (inactive)
GI50 (K562): > 100 µM (inactive)
GI50 (KM12): > 100 µM (inactive)
GI50 (SK-MEL-2): > 100 µM (inactive)
GI50 (SR): 91.6 µM (inactive)
GI50 (OVCAR-8): 54.3 µM (inactive)
GI50 (SN12C): > 100 µM (inactive)
GI50 (UACC-257): > 100 µM (inactive)
GI50 (OVCAR-4): > 100 µM (inactive)
GI50 (PC-3): > 100 µM (inactive)
GI50 (TK-10): > 100 µM (inactive)
GI50 (NCI-H226): > 100 µM (inactive)
GI50 (SK-MEL-28): > 100 µM (inactive)
GI50 (HCT-15): > 100 µM
GI50 (A498): > 100 µM (inactive)
GI50 (UO-31): > 100 µM (inactive)
GI50 (SF-268): 73.1 µM (inactive)
GI50 (NCI-H23): > 100 µM (inactive)
GI50 (HOP-62): 33.9 µM (inactive)
GI50 (DU-145): > 100 µM (inactive)
GI50 (BT-549): > 100 µM (inactive)
GI50 (HCT-116): > 100 µM (inactive)
GI50 (A549): > 100 µM (inactive)
GI50 (RPMI-8226): > 100 µM (inactive)
GI50 (SNB-19): 14.5 µM (inactive)
GI50 (M14): > 100 µM (inactive)
GI50 (T47D): > 100 µM (inactive)
GI50 (NCI/ADR-RES): > 100 µM (inactive)
GI50 (CAKI-1): > 100 µM (inactive)
GI50 (HOP-92): 79.1 µM (inactive)
GI50 (SF-539): > 100 µM (inactive)
GI50 (LOX IMVI): > 100 µM (inactive)
GI50 (RXF 393): 26.5 µM (inactive)
GI50 (NCI-H460): > 100 µM (inactive)
GI50 (U-251): 59.2 µM (inactive)
GI50 (OVCAR-3): > 100 µM (inactive)
GI50 (OVCAR-5): > 100 µM (inactive)
GI50 (COLO 205): > 100 µM (inactive)
GI50 (UACC-62): > 100 µM (inactive)
GI50 (SK-OV-3): > 100 µM (inactive)
GI50 (SK-MEL-5): > 100 µM (inactive)
GI50 (MDA-MB-435): > 100 µM (inactive)
GI50 (MOLT-4): 61.7 µM (inactive)
GI50 (SW-620): > 100 µM (inactive)
GI50 (MDA-MB-231): 52.7 µM (inactive)
GI50 (Hs-578T): > 100 µM (inactive)
GI50 (MCF7): > 100 µM (inactive)
GI50 (Malme-3M): > 100 µM (inactive)
GI50 (HCC 2998): > 100 µM (inactive)
GI50 (SNB-75): 74.8 µM (inactive)

COC(=O)CNC(=O)c1cc(C)cc2c1Oc1c(cc(C)cc1C(=O)NCC(=O)OC)S2
GI50 (MDA-N): > 100 µM (inactive)
GI50 (CCRF-CEM): 60.1 µM (inactive)
GI50 (786-0): 39.4 µM (inactive)
GI50 (NCI-H522): 89.7 µM (inactive)
GI50 (EKVX): > 100 µM (inactive)
GI50 (IGROV-1): > 100 µM (inactive)
GI50 (SF-295): 56.9 µM (inactive)
GI50 (ACHN): 25.6 µM (inactive)
GI50 (K562): > 100 µM (inactive)
GI50 (KM12): 81.7 µM (inactive)
GI50 (SK-MEL-2): > 100 µM (inactive)
GI50 (SR): 31 µM (inactive)
GI50 (OVCAR-8): > 100 µM (inactive)
GI50 (SN12C): 57.8 µM (inactive)
GI50 (UACC-257): 49.5 µM (inactive)
GI50 (OVCAR-4): > 100 µM (inactive)
GI50 (PC-3): > 100 µM (inactive)
GI50 (TK-10): > 100 µM (inactive)
GI50 (NCI-H226): > 100 µM (inactive)
GI50 (SK-MEL-28): 47.8 µM (inactive)
GI50 (HCT-15): 53.1 µM
GI50 (SF-268): 99.8 µM (inactive)
GI50 (NCI-H23): 58.7 µM (inactive)
GI50 (HT-29): 47.1 µM (inactive)
GI50 (HOP-62): > 100 µM (inactive)
GI50 (DU-145): 45.4 µM (inactive)
GI50 (BT-549): > 100 µM (inactive)
GI50 (HCT-116): > 100 µM (inactive)
GI50 (A549): 37.6 µM (inactive)
GI50 (RPMI-8226): 40 µM (inactive)
GI50 (SNB-19): > 100 µM (inactive)
GI50 (M14): 42.6 µM (inactive)
GI50 (T47D): > 100 µM (inactive)
GI50 (NCI/ADR-RES): > 100 µM (inactive)
GI50 (CAKI-1): > 100 µM (inactive)
GI50 (HOP-92): 22.3 µM (inactive)
GI50 (SF-539): 21.3 µM (inactive)
GI50 (LOX IMVI): 96.4 µM (inactive)
GI50 (RXF 393): 29.6 µM (inactive)
GI50 (U-251): > 100 µM (inactive)
GI50 (OVCAR-3): 38.5 µM (inactive)
GI50 (OVCAR-5): > 100 µM (inactive)
GI50 (COLO 205): 28.4 µM (inactive)
GI50 (UACC-62): 34.1 µM (inactive)
GI50 (SK-OV-3): 56 µM (inactive)
GI50 (MDA-MB-435): > 100 µM (inactive)
GI50 (MOLT-4): 62.2 µM (inactive)
GI50 (SW-620): > 100 µM (inactive)
GI50 (MDA-MB-231): > 100 µM (inactive)
GI50 (Hs-578T): 65.6 µM (inactive)
GI50 (MCF7): 98.9 µM (inactive)
GI50 (Malme-3M): 17.9 µM (inactive)
GI50 (HCC 2998): 38.5 µM (inactive)
GI50 (SNB-75): > 100 µM (inactive)

Cc1cnc2sn(-c3ccc([N+](=O)[O-])cc3)c(=O)c2c1
GI50 (MDA-N): > 100 µM (inactive)
GI50 (786-0): 56.8 µM (inactive)
GI50 (NCI-H522): 34.7 µM (inactive)
GI50 (EKVX): 74.1 µM (inactive)
GI50 (IGROV-1): 57.3 µM (inactive)
GI50 (SF-295): 45.3 µM (inactive)
GI50 (ACHN): 29.4 µM (inactive)
GI50 (K562): > 100 µM (inactive)
GI50 (KM12): > 100 µM (inactive)
GI50 (SK-MEL-2): 45.7 µM (inactive)
GI50 (SR): > 100 µM (inactive)
GI50 (OVCAR-8): 43 µM (inactive)
GI50 (SN12C): > 100 µM (inactive)
GI50 (OVCAR-4): 94.8 µM (inactive)
GI50 (PC-3): 66.2 µM (inactive)
GI50 (TK-10): 75.2 µM (inactive)
GI50 (NCI-H226): > 100 µM (inactive)
GI50 (SK-MEL-28): > 100 µM (inactive)
GI50 (HCT-15): > 100 µM
GI50 (UO-31): 74.6 µM (inactive)
GI50 (SF-268): 54.1 µM (inactive)
GI50 (NCI-H23): 42.9 µM (inactive)
GI50 (HT-29): > 100 µM (inactive)
GI50 (HOP-62): 14.9 µM (inactive)
GI50 (DU-145): 99.3 µM (inactive)
GI50 (BT-549): 43.2 µM (inactive)
GI50 (HCT-116): > 100 µM (inactive)
GI50 (A549): 64.3 µM (inactive)
GI50 (RPMI-8226): > 100 µM (inactive)
GI50 (SNB-19): 50.4 µM (inactive)
GI50 (M14): > 100 µM (inactive)
GI50 (T47D): > 100 µM (inactive)
GI50 (NCI/ADR-RES): > 100 µM (inactive)
GI50 (HOP-92): 33.3 µM (inactive)
GI50 (LOX IMVI): 72.6 µM (inactive)
GI50 (NCI-H460): 60.4 µM (inactive)
GI50 (U-251): 30.1 µM (inactive)
GI50 (OVCAR-3): 36.1 µM (inactive)
GI50 (OVCAR-5): > 100 µM (inactive)
GI50 (COLO 205): > 100 µM (inactive)
GI50 (UACC-62): 64.7 µM (inactive)
GI50 (SK-OV-3): 29 µM (inactive)
GI50 (SK-MEL-5): > 100 µM (inactive)
GI50 (MDA-MB-435): > 100 µM (inactive)
GI50 (MOLT-4): > 100 µM (inactive)
GI50 (SW-620): > 100 µM (inactive)
GI50 (MDA-MB-231): 82.2 µM (inactive)
GI50 (Hs-578T): 53.5 µM (inactive)
GI50 (MCF7): > 100 µM (inactive)
GI50 (Malme-3M): > 100 µM (inactive)
GI50 (HCC 2998): > 100 µM (inactive)
GI50 (SNB-75): 23.8 µM (inactive)
